# Results from publication PMC8909805, “Anticancer Activity of (S)-5-Chloro-3-((3,5-dimethylphenyl)sulfonyl)-N-(1-oxo-1-((pyridin-4-ylmethyl)amino)propan-2-yl)-1H-indole-2-carboxamide (RS4690), a New Dishevelled 1 Inhibitor” (Cancers, 2022).
# Assays:
# [1] = tested on: HCT116 cells; experiment: Cell growth inhibition, MTT assay, HCT116; assay type: cell-based; conditions: Homo sapiens, HCT-116; incubation time 48 h; cells express wild-type APC
# Procedure: (§1) Cell viability was evaluated by XTT [35] (SW480 and SW620 cells) or MTT [36] (HEK293 and HCT116 cells) colorimetric assays. Briefly, cells (range 10–30 × 10^3 cells/well) were seeded in 96-well microculture plates and then exposed to increasing concentrations of different compounds (range 0–300 µM) for 48 or 72 h. At the end of the treatment, media were removed and incubated at 37 °C in the dark for 4 h in phosphate-buffered saline (PBS) containing 0.2 mg/mL of sodium 3′-[1-[(phenylamino)-carbonyl]-3,4-tetrazolium]-bis(4-methoxy-6-nitro)benzene-sulfonic acid hydrate (XTT) (Thermo Fisher Scientific, Waltham, MA, USA) or (3-[4,5-dimethylthiazol-2-yl]-2,5 diphenyl tetrazolium bromide (MTT) (Merck, Kenilworth, NJ, USA) and phenazine methosulfate (PMS) at a final concentration of 25 µM. Absorbance at 450 nm and a reference wavelength of 650 nm was then measured using a microplate spectrophotometer (Multiskan FC Microplate Photometer, Thermo Scientific, Waltham, MA, USA). The cell growth inhibition rate was calculated utilizing the following formula: inhibition rate (%) = […], where Control OD is absorbance of negative control and Sample OD is absorbance of the test sample. The IC50 values were determined with GraphPad Prism 5 through constructed dose-response curves.
# (§2) In vitro cultures of colon cancer cells often present mutations either in the APC gene or in the β-catenin gene. […] Two of these cell lines, colon cancer SW480 and SW620 cells, were used in dose-response experiments. […] We thus tested their growth inhibitory activity on the colon cancer cell line HCT116. In terms of APC and β-catenin, these represent the wt counterparts of SW480 and […]. HCT116 cells express wt APC and are heterozygous for β-catenin, harboring one wild type and one mutant (Ser45del) allele. WNT pathway activity and the survival of HCT116 cells thus depend on DVL and can be affected by FZD and DVL inhibitors. […]
# [2] = tested on: SW480 cells; experiment: Cell growth inhibition, XTT assay, SW480; assay type: cell-based; conditions: Homo sapiens, incubation time 72 h
# Procedure: as §1, §2
EC50 [1],EC50 [2],Structure (SMILES)
28.3 ± 1.2 µM,59.5 ± 2.1 µM,Cc1cc(C)cc(S(=O)(=O)c2c(C(=O)N[C@H](C)C(=O)NCc3ccncc3)[nH]c3ccc(Cl)cc23)c1 [(R)-1]
7.1 ± 0.6 µM,55 ± 2.2 µM,"Cc1cc(C)cc(S(=O)(=O)c2c(C(=O)N[C@@H](C)C(=O)NCc3ccncc3)[nH]c3ccc(Cl)cc23)c1 [(S)-1, (S)-5-Chloro-3-((3,5-dimethylphenyl)sulfonyl)-N-(1-oxo-1-((pyridin-4-ylmethyl)amino)propan-2-yl)-1H-indole-2-carboxamide]"
15.2 ± 1.1 µM,39.2 ± 1.58 µM,Cc1cc(C)cc(S(=O)(=O)c2c(C(=O)NC(C)C(=O)NCc3ccncc3)[nH]c3ccc(Cl)cc23)c1 (stereo not drawn) [Compound 1]
